{
  "source": "patent US20250255945A1",
  "about": "“CLICK CHEMISTRY HLA POLYPEPTIDES” (IMMUNEO Therapeutics GmbH, priority 2024, published 2025)",
  "key": {"[1]": {"test_system": "prostate cancer with bone metastases", "experiment": "Case study Example 4: immunization of a subject with prostate cancer and bone metastases with PrCa-PC1/PrCa-PC2", "type": "in vivo, human", "conditions": "after 70 days", "method": "• Subject: A person • Date of Admission: Oct. 4, 2022 • Complaints: Urinary urgency, interrupted urination, nocturia, and erectile dysfunction\n• PSA Level: 99.77 ng/mL (See FIG. 9A) • MRI Examination: Moderately enlarged prostate with extensive, organ-crossing, and infiltrating prostate cancer on the left side. • PSMA-PET Examination: Involvement of the middle gland and apex on the left periphery, infiltrating the left seminal vesicles. No PSMA positive lymph node metastases found, but sclerotic bone metastases reported (See FIG. 9B). • First Biopsies: Taken from bone metastases in the area of the lateral mass of the left sacrum. Pathological assessment confirmed malignant prostatic origin.\n(§1) • Step (a): the pharmaceutical composition comprising the 12 synthetic HLA tumor antigen polypeptides and XS15 as adjuvant were synthesized as chemical peptides, • Step (b): the 12 HLA tumor antigen polypeptides were mixed in 25% DMSO/H2O application solution and divided multiple vial units of 1 nil each, Dose per HLA tumor antigen polypeptide: 300 μg\nas §1, with “7” for “12”, “ml” for “nil”, “μg […]” for “μg”"}, "[2]": {"test_system": "peripheral blood mononuclear cells (PBMCs)", "experiment": "IFN-γ ELISPOT assay (ex vivo) with subject PBMCs", "type": "cell-based, human", "method": "IFNγ ELISpot analysis (for protocol see A. Lalvani, R. Brookes, S. Hambleton, W. J. Britton, A. V. S. Hill, A. J. McMichael, J Exp Med 1997; 186 (6): 859-865) was performed ex vivo (without further in vitro culturing for expansion) using PBMCs depleted of CD4+ and enriched for CD8+ T cells (CD8+ effectors), or depleted of CD8+ and enriched for CD4+ T cells (CD4+ effectors). Tests were performed in duplicate and with a positive and negative control, Multiscreen filter plates (Merck Millipore) pre-coated with IFNγ-specific antibodies (ELISpotPro kit, Mabtech). 267.000 Cells were used per plate. Plates were scanned using an AID Classic Robot ELISPOT Reader and analyzed by AID ELISPOT 7.0 software (AID Autoimmun Diagnostika). Antigen Peptides (except negative and positive control group) were done in duplicates, spot counts were taken as mean values of each duplicate.\nThe immunogenicity of each of the six peptides was analyzed by IFN-γ secretion by subject peripheral blood mononuclear cells (PBMCs) using ELIspot assay. […]\nThe immunogenicity of each peptide was assessed in peripheral blood mononuclear cells (PBMCs) from patients and using the IFN-γ-ELISPOT assay. ELISPOT results were considered positive if the number of spots was at least 2-fold higher than the negative control (medium) and at least 50 spots were detected. […] We also tested the effect of delivery aiding peptides (DACP-1) and peptide extension by overlapping tandemization and tandemization on the immunogenicity of the epitopes."}, "[3]": {"conditions": "Table 2, HTAPP-DACP, response in ELISPOT experiments"}, "[4]": {"conditions": "Table 1, HTAPPs, response in ELISPOT experiments"}},
  "data": [
    {"compound": "CC(O)(CS(=O)(=O)c1ccc(F)cc1)C(=O)Nc1ccc(C#N)c(C(F)(F)F)c1", "note": "(centres unmarked) [Bicalutamide]", "values": [
      {"measurement": "tolerability (discontinuation)", "setting": "[1]", "value": "side effects"}
    ]},
    {"compound": "31 (QSYPGSASLAAYSGMPRISKLRQIKIWFQNRRMKWK) [compound 31]", "values": [
      {"measurement": "Elispot [nspots/pM]", "setting": "[2]; [3]", "value": "415,0 nspots/pM"}
    ]},
    {"compound": "17 (QSYPGSASLAAYSGMPRISKL) [compound 17]", "values": [
      {"measurement": "Elispot [nspots/pM]", "setting": "[2]; [4]", "value": "202,5 nspots/pM"}
    ]},
    {"compound": "5 (IKPRILGFDTPHYWLC) [compound 5]", "values": [
      {"measurement": "Elispot [nspots/pM]", "setting": "[2]; [4]", "value": "267,5 nspots/pM"}
    ]},
    {"compound": "51 (LLGRNSFEVHVCACPGRDRRQIKIWFQNRRMKWKK) [compound 51]", "values": [
      {"measurement": "Elispot [nspots/pM]", "setting": "[2]; Table 4, HTAPP-DACP related to group therapy", "value": "264,2 nspots/pM"}
    ]},
    {"compound": "74 (SPITSVLSADLFPKA) [compound 74]", "values": [
      {"measurement": "Elispot [nspots/pM]", "setting": "[2]; Table 6, further HTAPPs, HTAPP-DACPs and reference sequences", "value": "128,5 nspots/pM"}
    ]},
    {"compound": "58 (NSSCMGGMNWRPILTIITLRQIKIWFQNRRMKWKK) [compound 58]", "values": [
      {"measurement": "Elispot [nspots/pM]", "setting": "[2]; Table 5, HTAPP-DACP related to group therapy", "value": "228,3 nspots/pM"}
    ]},
    {"compound": "18 (KLVVVGAVGVGKSALTIRQIKIWFQNRRMKWKK) [compound 18]", "values": [
      {"measurement": "Elispot [nspots/pM]", "setting": "[2]; [3]", "value": "447,5 nspots/pM"}
    ]}
  ]
}
